Among the data in patent publication US20240025908A1, “COMPOUND USED AS KINASE INHIBITOR AND USE THEREOF” (TYK MEDICINES, INC., priority 2020, published 2024) are IC50 values, retold here.

The structures appear in SMILES notation.

Type in all cases: biochemical
One assay concerns the target ROS1 (Homo sapiens (Human), UniProt P08922). As to the kind of experiment: Radio-tagged HotSpot kinase assay, ROS1. The procedure: (§1) Inhibition of protein kinase activity by compounds was carried out on the Radio-tagged HotSpot kinase experimental platform of Reaction Biology Corporation. Fresh reaction solution (20 mM TIEPESpH 7.5, 10 mM MgCl2, 1 mM EGTA, 0.02% Brij35, 0.02 mg/ml BSA, 0.1 mM Na3VO4, 2 mM DTT, […]) containing corresponding substrates was prepared, cofactor and kinase to be tested were added into the above solution and mixed gently. Echo550 pipetting system was used to add the test compound DMSO solution to each well (the blank control group was added with the corresponding volume of DMSO), then 33P-ATP (with a final specific activity of 0.01 μCi/μL) was added to start the reaction. The reaction solution was incubated at room temperature for 120 minutes. Transferred the incubated reaction solution to P81 ion exchange chromatographic paper (Whatman #3698-915), eluted with […] phosphoric acid solution, and the amount of radioactive phosphorylated substrate remaining on the chromatographic paper was detected.

The target of another assay is ROS1 (G2032R) (Homo sapiens (Human), UniProt P08922, G2032R). As to the kind of experiment: Radio-tagged HotSpot kinase assay, ROS1 (G2032R). The procedure:
as §1

In a further assay the target is ALK (Homo sapiens (Human), UniProt Q9UM73). As to the kind of experiment: Radio-tagged HotSpot kinase assay, ALK. The procedure:
as §1

The target of another assay is TRKA (G677C) (Homo sapiens, UniProt P04629, G667C). The assay is described as follows: Radio-tagged HotSpot kinase assay, TRKA (G677C). The conditions noted are these: read-out: TRKA (G677C) (IC50/nM). The procedure: as §1
The next assay has as its target TRKA (Homo sapiens (Human), UniProt P04629). The assay is described as follows: Radio-tagged HotSpot kinase assay, TRKA. The protocol:
as §1

The target in the next assay is ALK (G1202R) (Homo sapiens (Human), UniProt Q9UM73, G1202R). The assay is described as follows: Radio-tagged HotSpot kinase assay, ALK (G1202R). The protocol:
as §1

Chain of ALK (Q9UM73 19-1620): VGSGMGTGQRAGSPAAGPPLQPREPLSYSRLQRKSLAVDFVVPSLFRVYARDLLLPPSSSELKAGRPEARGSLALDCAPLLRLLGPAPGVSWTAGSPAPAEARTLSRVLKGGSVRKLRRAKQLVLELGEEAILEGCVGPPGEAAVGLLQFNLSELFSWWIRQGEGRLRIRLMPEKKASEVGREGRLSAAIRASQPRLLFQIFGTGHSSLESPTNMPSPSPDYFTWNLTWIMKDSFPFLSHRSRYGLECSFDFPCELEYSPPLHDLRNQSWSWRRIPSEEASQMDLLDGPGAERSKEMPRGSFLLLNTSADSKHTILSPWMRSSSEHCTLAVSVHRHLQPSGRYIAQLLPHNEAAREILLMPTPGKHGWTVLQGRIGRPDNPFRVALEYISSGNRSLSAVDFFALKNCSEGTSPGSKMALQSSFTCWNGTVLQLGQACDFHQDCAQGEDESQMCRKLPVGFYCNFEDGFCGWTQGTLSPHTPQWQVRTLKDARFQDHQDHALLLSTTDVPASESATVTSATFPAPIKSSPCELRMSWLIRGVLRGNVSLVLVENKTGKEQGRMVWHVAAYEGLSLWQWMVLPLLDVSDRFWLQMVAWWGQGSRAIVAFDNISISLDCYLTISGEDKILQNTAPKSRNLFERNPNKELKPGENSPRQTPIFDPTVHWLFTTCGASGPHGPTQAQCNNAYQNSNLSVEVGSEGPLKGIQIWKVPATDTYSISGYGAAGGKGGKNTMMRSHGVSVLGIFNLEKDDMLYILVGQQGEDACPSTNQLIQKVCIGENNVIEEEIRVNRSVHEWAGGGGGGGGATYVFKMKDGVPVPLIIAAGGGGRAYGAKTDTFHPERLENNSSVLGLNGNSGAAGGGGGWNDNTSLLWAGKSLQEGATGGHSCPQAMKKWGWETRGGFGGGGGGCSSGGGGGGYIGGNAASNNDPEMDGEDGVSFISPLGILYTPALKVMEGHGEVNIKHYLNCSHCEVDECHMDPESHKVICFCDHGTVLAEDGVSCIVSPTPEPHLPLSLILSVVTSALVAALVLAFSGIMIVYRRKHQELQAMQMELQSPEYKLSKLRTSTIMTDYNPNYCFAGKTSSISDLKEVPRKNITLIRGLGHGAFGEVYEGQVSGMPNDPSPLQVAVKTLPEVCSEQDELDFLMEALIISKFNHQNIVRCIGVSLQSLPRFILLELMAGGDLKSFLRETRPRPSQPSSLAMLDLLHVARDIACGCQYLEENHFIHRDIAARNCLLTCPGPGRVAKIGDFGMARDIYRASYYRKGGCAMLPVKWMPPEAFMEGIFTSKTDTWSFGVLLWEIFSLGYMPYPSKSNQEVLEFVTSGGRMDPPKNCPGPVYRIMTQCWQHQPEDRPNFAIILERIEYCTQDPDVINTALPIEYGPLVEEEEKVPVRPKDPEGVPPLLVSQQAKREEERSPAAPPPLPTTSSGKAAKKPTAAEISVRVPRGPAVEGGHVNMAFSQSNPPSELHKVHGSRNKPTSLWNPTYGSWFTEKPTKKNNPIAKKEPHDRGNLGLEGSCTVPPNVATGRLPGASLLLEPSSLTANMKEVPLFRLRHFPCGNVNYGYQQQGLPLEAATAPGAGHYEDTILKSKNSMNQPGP
Chain of ALK (G1202R) (Q9UM73 19-1620 G1202R): as the sequence (Q9UM73 19-1620) above, with G1184R counted along it
Chain of TRKA (P04629 33-796): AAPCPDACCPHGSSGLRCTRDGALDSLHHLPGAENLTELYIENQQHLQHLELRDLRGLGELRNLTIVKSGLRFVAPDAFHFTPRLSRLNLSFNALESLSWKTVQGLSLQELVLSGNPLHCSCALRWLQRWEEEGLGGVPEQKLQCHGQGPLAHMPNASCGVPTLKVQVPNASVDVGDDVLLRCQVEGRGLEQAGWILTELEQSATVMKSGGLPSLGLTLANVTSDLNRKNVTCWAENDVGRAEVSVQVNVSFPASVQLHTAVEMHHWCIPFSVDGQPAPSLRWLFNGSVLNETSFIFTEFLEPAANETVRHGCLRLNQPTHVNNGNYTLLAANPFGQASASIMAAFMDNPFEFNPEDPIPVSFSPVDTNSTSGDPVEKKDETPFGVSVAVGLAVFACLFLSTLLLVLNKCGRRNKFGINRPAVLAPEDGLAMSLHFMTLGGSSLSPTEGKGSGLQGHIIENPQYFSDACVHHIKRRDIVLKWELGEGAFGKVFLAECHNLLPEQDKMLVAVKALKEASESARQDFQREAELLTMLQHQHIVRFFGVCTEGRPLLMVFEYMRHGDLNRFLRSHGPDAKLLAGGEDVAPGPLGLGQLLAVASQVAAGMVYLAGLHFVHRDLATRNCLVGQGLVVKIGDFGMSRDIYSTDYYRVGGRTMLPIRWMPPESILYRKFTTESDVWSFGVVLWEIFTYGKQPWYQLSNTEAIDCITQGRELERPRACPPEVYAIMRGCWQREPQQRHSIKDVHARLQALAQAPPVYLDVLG
Chain of ROS1 (P08922 28-2347): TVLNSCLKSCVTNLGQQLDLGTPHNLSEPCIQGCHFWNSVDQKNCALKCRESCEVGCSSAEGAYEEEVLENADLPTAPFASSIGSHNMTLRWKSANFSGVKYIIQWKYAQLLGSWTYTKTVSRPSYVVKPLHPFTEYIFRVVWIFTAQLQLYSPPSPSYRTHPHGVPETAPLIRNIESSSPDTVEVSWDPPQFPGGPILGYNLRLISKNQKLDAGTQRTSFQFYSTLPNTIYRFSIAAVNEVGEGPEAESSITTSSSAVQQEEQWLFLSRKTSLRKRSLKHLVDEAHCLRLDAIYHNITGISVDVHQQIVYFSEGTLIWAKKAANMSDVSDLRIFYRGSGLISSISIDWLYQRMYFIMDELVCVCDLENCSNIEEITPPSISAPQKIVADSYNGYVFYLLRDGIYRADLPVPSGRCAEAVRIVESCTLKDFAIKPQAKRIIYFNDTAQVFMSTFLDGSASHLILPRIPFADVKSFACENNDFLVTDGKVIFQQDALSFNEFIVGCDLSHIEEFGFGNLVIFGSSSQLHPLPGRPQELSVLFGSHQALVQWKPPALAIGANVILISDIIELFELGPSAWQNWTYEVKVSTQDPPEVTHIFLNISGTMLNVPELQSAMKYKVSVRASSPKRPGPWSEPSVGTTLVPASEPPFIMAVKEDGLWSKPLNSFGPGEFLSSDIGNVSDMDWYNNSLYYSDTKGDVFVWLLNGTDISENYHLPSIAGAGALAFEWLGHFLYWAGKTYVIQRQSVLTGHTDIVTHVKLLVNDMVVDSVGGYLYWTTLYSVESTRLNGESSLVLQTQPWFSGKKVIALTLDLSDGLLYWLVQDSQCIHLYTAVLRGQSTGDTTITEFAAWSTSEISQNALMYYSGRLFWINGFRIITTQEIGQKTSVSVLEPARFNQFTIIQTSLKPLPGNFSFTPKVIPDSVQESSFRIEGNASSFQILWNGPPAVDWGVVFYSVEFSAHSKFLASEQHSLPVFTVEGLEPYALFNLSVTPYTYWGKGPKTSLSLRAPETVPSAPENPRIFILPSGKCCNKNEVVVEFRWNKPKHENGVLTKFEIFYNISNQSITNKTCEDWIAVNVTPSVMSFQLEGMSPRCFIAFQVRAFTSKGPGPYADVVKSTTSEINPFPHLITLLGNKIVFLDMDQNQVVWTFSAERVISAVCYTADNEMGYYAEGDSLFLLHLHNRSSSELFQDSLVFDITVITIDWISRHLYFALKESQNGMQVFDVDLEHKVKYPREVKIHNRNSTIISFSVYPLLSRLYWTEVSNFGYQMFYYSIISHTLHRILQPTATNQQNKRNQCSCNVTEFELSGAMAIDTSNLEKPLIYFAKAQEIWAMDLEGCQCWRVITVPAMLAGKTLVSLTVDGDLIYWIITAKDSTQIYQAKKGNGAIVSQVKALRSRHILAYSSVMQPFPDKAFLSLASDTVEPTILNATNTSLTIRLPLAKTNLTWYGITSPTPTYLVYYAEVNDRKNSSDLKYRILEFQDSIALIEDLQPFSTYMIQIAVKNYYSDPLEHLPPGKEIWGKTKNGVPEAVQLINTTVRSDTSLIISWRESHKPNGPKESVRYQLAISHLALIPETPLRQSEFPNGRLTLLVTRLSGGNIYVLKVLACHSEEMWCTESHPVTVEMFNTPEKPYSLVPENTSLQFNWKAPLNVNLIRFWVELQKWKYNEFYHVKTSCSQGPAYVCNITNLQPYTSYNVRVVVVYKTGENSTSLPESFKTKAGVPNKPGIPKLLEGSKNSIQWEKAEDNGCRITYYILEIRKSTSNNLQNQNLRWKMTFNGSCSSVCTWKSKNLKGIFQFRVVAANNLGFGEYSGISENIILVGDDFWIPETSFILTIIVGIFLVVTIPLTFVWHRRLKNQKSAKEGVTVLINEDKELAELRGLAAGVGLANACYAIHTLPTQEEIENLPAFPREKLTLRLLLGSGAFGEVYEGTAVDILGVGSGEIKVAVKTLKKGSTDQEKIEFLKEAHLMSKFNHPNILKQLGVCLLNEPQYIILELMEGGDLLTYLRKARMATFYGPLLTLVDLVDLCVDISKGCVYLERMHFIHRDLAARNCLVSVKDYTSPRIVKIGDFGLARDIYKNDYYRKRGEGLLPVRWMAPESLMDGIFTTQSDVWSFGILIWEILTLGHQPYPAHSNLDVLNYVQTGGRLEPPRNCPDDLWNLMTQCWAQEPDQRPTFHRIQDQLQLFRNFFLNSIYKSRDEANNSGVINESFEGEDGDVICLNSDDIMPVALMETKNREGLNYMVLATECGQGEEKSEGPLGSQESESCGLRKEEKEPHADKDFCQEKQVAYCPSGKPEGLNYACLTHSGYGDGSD
Chain of TRKA (G677C) (P04629 33-796 G667C limits assumed): as the sequence (P04629 33-796) above, with G635C counted along it
Chain of ROS1 (G2032R) (P08922 28-2347 G2032R): as the sequence (P08922 28-2347) above, with G2005R counted along it

For the compound `COc1ccc(F)cc1[C@@H](C)Nc1ccn2ncc(NC3=NC(C)(C)CO3)c2n1` [Example 1], the IC50 was 0.5 to 5 nM against ROS1; 0.5 to 5 nM against ROS1 (G2032R); 0.5 to 5 nM on ALK; 0.5 to 5 nM at TRKA (G677C); 0.5 to 5 nM at TRKA; 5 to 50 nM against ALK (G1202R).
Take `C[C@@H](Nc1ccn2ncc(NC3=NC(C)(C)CO3)c2n1)c1cc(F)cc(F)c1F` [Example 2]: the IC50 was 0.5 to 5 nM against ROS1; 0.5 to 5 nM against ROS1 (G2032R); 0.5 to 5 nM against ALK; 0.5 to 5 nM at TRKA (G677C); 0.5 to 5 nM on TRKA; 5 to 50 nM at ALK (G1202R).
Consider `C[C@@H](Nc1ccn2ncc(C3=NOCCN3)c2n1)c1cc(F)cc(F)c1F` [Example 3], for which the IC50 on ROS1 is less than 0.5 nM; against ROS1 (G2032R), less than 0.5 nM; on ALK, 0.5 to 5 nM; on TRKA (G677C), less than 0.5 nM; against TRKA, less than 0.5 nM; against ALK (G1202R), 0.5 to 5 nM.
As for `C[C@@H](Nc1ccn2ncc(C3=NN=CC(C)(C)N3)c2n1)c1cc(F)cc(F)c1F` [Example 5], the IC50 fell in the range of 0.5 to 5 nM on ROS1; 5 to 50 nM at ROS1 (G2032R); 5 to 50 nM against ALK; 5 to 50 nM at TRKA (G677C); 0.5 to 5 nM against TRKA; 5 to 50 nM at ALK (G1202R).
Consider `C[C@@H](Nc1ccn2ncc(C3=NC(=O)C(C)(C)N3)c2n1)c1cc(F)cc(F)c1F` [Example 8], for which the IC50 on ROS1 was less than 0.5 nM; against ROS1 (G2032R), less than 0.5 nM; on ALK it was 0.5 to 5 nM; on TRKA (G677C), less than 0.5 nM; against TRKA, less than 0.5 nM; at ALK (G1202R) it was 5 to 50 nM.
With `COc1ncc(F)cc1[C@@H](C)Nc1ccn2ncc(C3=NC(=O)C(C)(C)N3)c2n1` [Example 10], the IC50 on ROS1 was less than 0.5 nM; against ROS1 (G2032R) it was less than 0.5 nM; on ALK it was 0.5 to 5 nM; at TRKA (G677C), less than 0.5 nM; at TRKA it was less than 0.5 nM; at ALK (G1202R), 5 to 50 nM.
With `CCCOC(=O)/N=C(\N)c1cnn2ccc(N[C@H](C)c3cc(F)cc(F)c3F)nc12` [Example 11], the IC50 lay within 0.5 to 5 nM at ROS1; 5 to 50 nM against ROS1 (G2032R); 50 to 500 nM at ALK; 5 to 50 nM at TRKA (G677C); 0.5 to 5 nM against TRKA; 50 to 500 nM against ALK (G1202R).
As to `COc1ccc(F)cc1[C@@H](C)Nc1ccn2ncc(NC3=NC(C)(C)CN3)c2n1` [Example 12], the IC50 fell in the range of 0.5 to 5 nM against ROS1; 5 to 50 nM against ROS1 (G2032R); 5 to 50 nM on ALK; 5 to 50 nM at TRKA (G677C); 0.5 to 5 nM on TRKA; 5 to 50 nM on ALK (G1202R).
As for `C[C@@H](Nc1ccn2ncc(C(=O)NOCCO)c2n1)c1cc(F)cc(F)c1F` [Example 13], the IC50 at ROS1 lay within 5 to 50 nM; at ROS1 (G2032R), 50 to 500 nM; against ALK it was 50 to 500 nM; on TRKA (G677C), 50 to 500 nM; against TRKA, 5 to 50 nM; at ALK (G1202R), 50 to 500 nM.
In the case of `COc1ccc(F)cc1[C@@H](C)Nc1ccn2ncc(OC3=NC(C)(C)CN3)c2n1` [Example 14], the IC50 on ROS1 is 0.5 to 5 nM; against ROS1 (G2032R) it was 5 to 50 nM; against ALK it was 50 to 500 nM; on TRKA (G677C), 5 to 50 nM; against TRKA it was 0.5 to 5 nM; against ALK (G1202R), 50 to 500 nM.
As for `C[C@@H](Nc1ccn2ncc(OC3=NCC(C)(C)N3)c2n1)c1cc(F)cc(F)c1F` [Example 15], the IC50 against ROS1 fell in the range of 0.5 to 5 nM; at ROS1 (G2032R) it was 5 to 50 nM; on ALK, 50 to 500 nM; at TRKA (G677C), 5 to 50 nM; against TRKA, 0.5 to 5 nM; against ALK (G1202R), 50 to 500 nM.
Regarding `C[C@@H](Nc1ccn2ncc(C3=NOCC(C)(C)N3)c2n1)c1cc(F)ccc1OC(F)F` [Example 16], the IC50 at ROS1 lay in the range of 0.5 to 5 nM; at ROS1 (G2032R) it was 5 to 50 nM; against ALK, 5 to 50 nM; at TRKA (G677C), 5 to 50 nM; on TRKA, 0.5 to 5 nM; against ALK (G1202R), 50 to 500 nM.
With `C[C@@H](Nc1ccn2ncc(NC3=NCC(C)(C)N3)c2n1)c1cc(F)cc(F)c1F` [Example 17], the IC50 against ROS1 was in the range of 0.5 to 5 nM; against ROS1 (G2032R), 5 to 50 nM; against ALK it was 50 to 500 nM; on TRKA (G677C), 5 to 50 nM; against TRKA it was 0.5 to 5 nM; against ALK (G1202R), 50 to 500 nM.
As for `COc1c(F)cc(F)cc1[C@@H](C)Nc1ccn2ncc(NC3=NC(C)(C)CO3)c2n1` [Example 18], the IC50 against ROS1 fell in the range of 0.5 to 5 nM; against ROS1 (G2032R) it was 5 to 50 nM; on ALK it was 5 to 50 nM; at TRKA (G677C), 5 to 50 nM; against TRKA, 0.5 to 5 nM; on ALK (G1202R), 50 to 500 nM.
In the case of `C[C@@H](Nc1ccn2ncc(C3=NOCCN3)c2n1)c1cc(F)cc(C(F)(F)F)c1F` [Example 19], the IC50 on ROS1 is 0.5 to 5 nM; at ROS1 (G2032R) it was 5 to 50 nM; on ALK, 5 to 50 nM; on TRKA (G677C), 5 to 50 nM; against TRKA, 0.5 to 5 nM; on ALK (G1202R), 50 to 500 nM.
As for `COc1c(F)cc(F)cc1[C@@H](C)Nc1ccn2ncc(C3=NC(=O)C(C)(C)N3)c2n1` [Example 20], the IC50 was less than 0.5 nM at ROS1; 0.5 to 5 nM against ROS1 (G2032R); 0.5 to 5 nM against ALK; 0.5 to 5 nM at TRKA (G677C); less than 0.5 nM against TRKA; 5 to 50 nM on ALK (G1202R).
As for `C[C@@H](Nc1ccn2ncc(C3=NC(=O)C(C)(C)N3)c2n1)c1cc(F)ccc1OC(F)(F)F` [Example 21], the IC50 against ROS1 was less than 0.5 nM; against ROS1 (G2032R), 0.5 to 5 nM; at ALK, 0.5 to 5 nM; at TRKA (G677C) it was 0.5 to 5 nM; on TRKA, less than 0.5 nM; against ALK (G1202R), 5 to 50 nM.
On to `CCOc1ncc(F)cc1[C@@H](C)Nc1ccn2ncc(C3=NOCCN3)c2n1` [Example 22], for which the IC50 against ROS1 is less than 0.5 nM; against ROS1 (G2032R) it was 0.5 to 5 nM; at ALK, 0.5 to 5 nM; on TRKA (G677C), 0.5 to 5 nM; against TRKA it was less than 0.5 nM; on ALK (G1202R), 5 to 50 nM.
For the compound `C[C@@H](Nc1ccn2ncc(C3=NC(=O)C(C)(C)N3)c2n1)c1cc(F)cnc1OCC(F)(F)F` [Example 23], the IC50 at ROS1 is less than 0.5 nM; at ROS1 (G2032R), 0.5 to 5 nM; on ALK it was 5 to 50 nM; on TRKA (G677C), 0.5 to 5 nM; against TRKA, less than 0.5 nM; against ALK (G1202R) it was 50 to 500 nM.
`CONC(=O)c1cnn2ccc(N[C@H](C)c3cc(F)cc(F)c3F)nc12` [Example 24]: the IC50 on ROS1 lay within 5 to 50 nM; against ROS1 (G2032R), 50 to 500 nM; against ALK it was 5 to 50 nM; on TRKA (G677C), 50 to 500 nM; on TRKA, 5 to 50 nM; against ALK (G1202R) it was 50 to 500 nM.
On to `C[C@@H](Nc1ccn2ncc(C3=NC(=O)C(C)(C)N3)c2n1)c1cc(F)cnc1OC(F)(F)F` [Example 25], for which the IC50 on ROS1 is less than 0.5 nM; at ROS1 (G2032R), 0.5 to 5 nM; against ALK it was 0.5 to 5 nM; at TRKA (G677C), 0.5 to 5 nM; on TRKA, less than 0.5 nM; against ALK (G1202R) it was 5 to 50 nM.
In the case of `C[C@@H](Nc1ccn2ncc(C3=NOCCN3)c2n1)c1cc(F)ccc1C(F)(F)F` [Example 27], the IC50 was in the range of 0.5 to 5 nM on ROS1; 50 to 500 nM against ROS1 (G2032R); 5 to 50 nM at ALK; 50 to 500 nM at TRKA (G677C); 0.5 to 5 nM against TRKA; 50 to 500 nM against ALK (G1202R).
